# Legend:
# ATR kinase = ATR kinase (Homo sapiens (Human), UniProt Q13535); test: In vitro ATR kinase inhibition assay (Mobility Shift Assay, Caliper EZ Reader); type: biochemical; conditions: for IC50: ATP concentration of Km, 4 h at 28° C.; for ATR IC50 value (ratio to Example Compound 1): ATR IC50 of comparative compound divided by that of Example Compound 1 (5.5 nM)
# Method: Experimental method: The inhibitory activity of the compounds on ATR kinase in vitro was determined by Mobility Shift Assay at an ATP concentration of Km using Caliper EZ Reader as a mobility shift assaying technology based on microfluidic chip technology.
# Experimental procedure: (1) The compounds to be tested were dissolved in DMSO and serially diluted 4× for a total of 10 concentrations; (2) 0.06 μL of the compounds at different concentrations were pipetted into a 384-well plate using an Echo pipetting system; (3) a 2× kinase solution with a concentration of 10 nM ATR kinase was prepared from the ATR kinase and the 1× kinase buffer; and a 2× substrate solution with a concentration of 6 μM 5-FAM-AK-17 and 4 μM ATP was prepared from 5-FAM-AK-17, ATP and the 1× kinase buffer; (4) 10 μL of the 2× kinase solution was added into the 384-well plate and incubated for 10 min at room temperature; 10 μL of the 2× substrate solution was then added and incubated for 4 h at 28° C.; (5) 30 μL of the termination buffer was added to terminate the reaction, and then the 384-well plate was put into the Caliper EZ Reader to read the conversion rate data.
# [1] = system: human colon cancer LoVo cells; test: Cell proliferation inhibition assay (CellTiter-Glo); type: cell-based; conditions: for IC50 / Emax / Max Inhibition: LoVo cells, 96 hours incubation; for Emax: Homo sapiens, read-out: Max Inhibition; for LoVo IC50 value (ratio to Example Compound 1): LoVo IC50 of comparative compound divided by that of Example Compound 1 (0.66 μM)
# From the text: Experimental method: A CellTiter-Glo cell viability assay kit was used to test the inhibitory effect of the compounds on the in vitro proliferation of human colon cancer LoVo cells.
# Experimental materials: LoVo cells (ATCC, Cat. No. CCL-29); F-12K medium (Invitrogen, Cat. No. 21127-022); fetal bovine serum (Biological Industries, Cat. No. 04-002-1A); GlutaMAX (Gibco, Cat. No. 35050-061); 0.25% trypsin-EDTA (Invitrogen, Cat. No. 25200-072); CellTiter-Glo kit (Promega, Cat. No. G7558).
# Experimental procedure: (1) F-12K medium, fetal bovine serum and GlutaMAX were formulated into a complete medium for culturing LoVo cells; (2) well-grown LoVo cells were taken, digested with trypsin and transferred to a centrifuge tube, and centrifuged; the supernatant was discarded, and cells were resuspended by adding a fresh medium and counted by a Vi-CELL XR cell counter; the density of the cell suspension was adjusted to 25,000 to 30,000 cells/mL, and the cell suspension was added at 100 μL/well in a 96-well cell culture plate, while a blank control group was set up with no cells added, and the cell culture plate was incubated in a carbon dioxide incubator overnight; (3) a DMSO solution of the compound to be tested was dispensed into the above 96-well cell culture plate using an HP D300 ultra-micro sampler, with 0.5 μL of the solution per well and 10 concentrations for each compound (3× dilution), while a DMSO control group with no compound added was set up, and the plate was continued to be incubated in a carbon dioxide incubator for 96 hours; (4) the cell culture plate was taken out and equilibrated to room temperature, with 100 μL of a CellTiter-Glo reagent added to each well, and then the plate was kept away from light, shaken for 10 minutes and then incubated for 10 minutes; (5) the cell culture plate was put into EnSpire for plate reading, and the luminescence value RLU was recorded.
# Data processing: (1) The inhibition rate was calculated from the luminescence values: “RLUDMSO” is the luminescence value of the DMSO control group without compound, “RLUblank” is the luminescence value of the blank control group without cells, and “RLUcompound” is the luminescence value of the compound test group, and the inhibition rate=[1−(RLUcompound−RLUblank)/(RLUDMSO−RLUblank)]×100%; (2) with curve fitting using the Excel add-on XLFit, the IC50 value was calculated.
# Sequence of ATR kinase (Q13535 whole entry): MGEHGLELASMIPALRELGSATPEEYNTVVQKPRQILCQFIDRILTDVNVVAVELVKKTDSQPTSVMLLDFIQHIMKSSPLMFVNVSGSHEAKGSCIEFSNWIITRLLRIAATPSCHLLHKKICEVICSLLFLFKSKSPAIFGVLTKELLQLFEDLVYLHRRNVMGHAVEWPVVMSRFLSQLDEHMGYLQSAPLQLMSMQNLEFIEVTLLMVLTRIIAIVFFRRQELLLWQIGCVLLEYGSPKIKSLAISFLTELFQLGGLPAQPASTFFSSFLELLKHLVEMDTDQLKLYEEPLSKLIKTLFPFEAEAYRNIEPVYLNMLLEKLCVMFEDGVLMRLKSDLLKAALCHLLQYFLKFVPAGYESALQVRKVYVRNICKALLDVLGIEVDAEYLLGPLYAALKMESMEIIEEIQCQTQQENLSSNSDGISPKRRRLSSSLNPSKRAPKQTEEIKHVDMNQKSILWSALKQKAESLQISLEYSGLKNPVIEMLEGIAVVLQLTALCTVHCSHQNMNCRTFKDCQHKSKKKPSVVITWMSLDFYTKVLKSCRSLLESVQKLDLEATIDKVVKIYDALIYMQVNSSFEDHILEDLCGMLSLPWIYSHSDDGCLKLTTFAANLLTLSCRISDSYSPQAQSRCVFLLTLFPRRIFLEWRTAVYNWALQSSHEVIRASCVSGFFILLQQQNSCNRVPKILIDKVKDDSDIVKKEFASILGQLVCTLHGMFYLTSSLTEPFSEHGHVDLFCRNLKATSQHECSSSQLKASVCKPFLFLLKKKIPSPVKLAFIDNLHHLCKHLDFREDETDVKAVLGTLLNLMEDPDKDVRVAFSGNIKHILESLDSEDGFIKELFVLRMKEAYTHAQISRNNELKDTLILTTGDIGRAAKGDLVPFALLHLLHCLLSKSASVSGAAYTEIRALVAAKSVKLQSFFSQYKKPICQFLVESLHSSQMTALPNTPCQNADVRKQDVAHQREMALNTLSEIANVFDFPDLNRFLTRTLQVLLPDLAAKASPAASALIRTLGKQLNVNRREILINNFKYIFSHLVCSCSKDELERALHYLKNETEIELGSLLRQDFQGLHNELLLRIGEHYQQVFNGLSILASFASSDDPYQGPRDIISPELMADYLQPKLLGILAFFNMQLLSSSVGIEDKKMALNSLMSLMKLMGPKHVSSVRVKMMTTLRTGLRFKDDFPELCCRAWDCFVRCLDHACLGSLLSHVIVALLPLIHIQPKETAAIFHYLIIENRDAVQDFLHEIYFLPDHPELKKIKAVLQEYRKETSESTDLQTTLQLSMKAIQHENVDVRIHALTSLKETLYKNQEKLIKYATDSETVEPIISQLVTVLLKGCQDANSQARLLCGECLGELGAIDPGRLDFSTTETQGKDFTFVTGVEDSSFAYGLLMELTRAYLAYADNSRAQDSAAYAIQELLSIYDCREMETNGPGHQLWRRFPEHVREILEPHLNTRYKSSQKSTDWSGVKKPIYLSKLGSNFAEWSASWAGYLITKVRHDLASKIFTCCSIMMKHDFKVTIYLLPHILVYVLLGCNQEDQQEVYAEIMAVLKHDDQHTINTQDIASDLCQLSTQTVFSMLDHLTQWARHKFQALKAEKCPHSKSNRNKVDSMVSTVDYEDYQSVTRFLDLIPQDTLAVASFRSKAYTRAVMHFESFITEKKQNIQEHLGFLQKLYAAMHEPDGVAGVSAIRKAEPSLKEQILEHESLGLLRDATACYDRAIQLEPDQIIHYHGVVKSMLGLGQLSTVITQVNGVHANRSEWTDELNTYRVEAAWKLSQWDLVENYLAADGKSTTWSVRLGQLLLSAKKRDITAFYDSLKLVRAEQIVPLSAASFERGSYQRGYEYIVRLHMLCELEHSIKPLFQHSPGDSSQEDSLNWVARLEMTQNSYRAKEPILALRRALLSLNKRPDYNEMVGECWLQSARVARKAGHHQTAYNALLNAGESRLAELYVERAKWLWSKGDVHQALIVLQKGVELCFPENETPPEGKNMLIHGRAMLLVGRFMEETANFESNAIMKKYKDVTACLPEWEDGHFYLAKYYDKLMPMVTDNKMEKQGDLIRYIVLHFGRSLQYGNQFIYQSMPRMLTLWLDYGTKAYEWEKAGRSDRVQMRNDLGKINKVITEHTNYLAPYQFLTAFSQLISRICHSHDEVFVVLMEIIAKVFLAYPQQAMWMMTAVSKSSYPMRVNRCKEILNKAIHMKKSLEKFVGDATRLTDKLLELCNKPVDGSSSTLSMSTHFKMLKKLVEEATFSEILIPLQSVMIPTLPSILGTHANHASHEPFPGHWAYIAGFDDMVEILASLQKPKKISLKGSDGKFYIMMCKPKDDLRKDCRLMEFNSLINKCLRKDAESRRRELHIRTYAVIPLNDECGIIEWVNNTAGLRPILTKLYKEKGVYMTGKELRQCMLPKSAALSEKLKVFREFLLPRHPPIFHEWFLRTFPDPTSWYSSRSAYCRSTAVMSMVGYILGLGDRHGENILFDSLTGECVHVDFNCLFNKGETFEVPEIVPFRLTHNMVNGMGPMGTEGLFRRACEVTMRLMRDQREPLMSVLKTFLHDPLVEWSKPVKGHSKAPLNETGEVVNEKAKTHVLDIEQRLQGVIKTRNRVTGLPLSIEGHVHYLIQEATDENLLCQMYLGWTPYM
# Sequence of ATR kinase (Q8WXE1 whole entry partner): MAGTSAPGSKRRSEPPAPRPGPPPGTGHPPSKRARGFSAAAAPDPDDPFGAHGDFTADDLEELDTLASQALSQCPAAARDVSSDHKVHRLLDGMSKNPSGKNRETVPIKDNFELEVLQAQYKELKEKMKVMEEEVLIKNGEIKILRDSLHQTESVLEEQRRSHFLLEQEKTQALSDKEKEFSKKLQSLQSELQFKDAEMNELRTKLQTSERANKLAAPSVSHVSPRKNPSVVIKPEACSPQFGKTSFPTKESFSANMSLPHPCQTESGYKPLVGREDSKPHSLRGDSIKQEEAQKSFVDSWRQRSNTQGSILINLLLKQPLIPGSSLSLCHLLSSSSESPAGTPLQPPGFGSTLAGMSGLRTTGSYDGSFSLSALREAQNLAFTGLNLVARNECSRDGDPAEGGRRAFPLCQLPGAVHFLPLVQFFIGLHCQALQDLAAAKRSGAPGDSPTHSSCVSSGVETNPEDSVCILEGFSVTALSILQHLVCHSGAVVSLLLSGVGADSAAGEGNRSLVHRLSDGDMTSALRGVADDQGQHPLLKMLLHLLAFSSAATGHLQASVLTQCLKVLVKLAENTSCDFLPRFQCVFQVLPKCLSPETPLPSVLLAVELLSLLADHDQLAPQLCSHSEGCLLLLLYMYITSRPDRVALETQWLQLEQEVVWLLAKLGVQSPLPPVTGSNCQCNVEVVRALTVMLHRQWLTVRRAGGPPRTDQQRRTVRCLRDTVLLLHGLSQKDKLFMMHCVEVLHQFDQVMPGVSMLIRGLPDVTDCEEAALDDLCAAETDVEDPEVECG
IC50 (ATR kinase) [nM],SMILES,also measured
4.2,"C[C@@H]1COCCN1c1cc(-c2cccc3[nH]ccc23)nc2c1ccn2S(C)(=O)=O [Compound 2, (R)-4-(6-(1H-indol-4-yl)-1-(methylsulfonyl)-1H-pyrrolo[2,3-b]pyridin-4-yl)-3-methylmorpholine]",Emax [1]: 94%
63,"C[C@@H]1COCCN1c1cc(-c2ccnc3[nH]ccc23)nc2c1ccn2C [Compound 2′, reference compound]",–
10,"C[C@@H]1COCCN1c1cc(-c2cncc3[nH]ccc23)nc2c1ccn2S(C)(=O)=O [Compound 3, (R)-3-methyl-4-(1-(methylsulfonyl)-6-(1H-pyrrolo[2,3-c]pyridin-4-yl)-1H-pyrrolo[2,3-b]pyridin-4-yl)morpholine]",Emax [1]: 93%
31,"C[C@@H]1COCCN1c1nc(-c2cncc3[nH]ccc23)nc2c1ccn2C [Compound 3′, reference compound]",–
208,"C[C@@H]1COCCN1c1cc(-c2cnc3[nH]ccc3c2)nc2c1ccn2S(C)(=O)=O [Compound 4, (R)-3-methyl-4-(1′-(methylsulfonyl)-1H,1′H-[5,6′-dipyrrolo[2,3-b]pyridin]-4′-yl)morpholine]",–
20,"C[C@@H]1COCCN1c1cc(-c2ccnc3[nH]ccc23)nc2c1ccn2CS(C)(=O)=O [Compound 4′, reference compound]",ATR IC50 value (ratio to Example Compound 1) (ATR kinase): 20/5.5 = 3.64; LoVo IC50 value (ratio to Example Compound 1) [1]: 2.34/0.66 = 3.55
534,"C[C@@H]1COCCN1c1cc(-c2c[nH]c3ncccc23)nc2c1ccn2S(C)(=O)=O [Compound 5, (R)-3-methyl-4-(1′-(methylsulfonyl)-1H,1′H-[3,6′-dipyrrolo[2,3-b]pyridin]-4′-yl)morpholine]",–
15,"CC(n1ccc2c(N3CCOC[C@H]3C)cc(-c3ccnc4[nH]ccc34)nc21)S(C)(=O)=O (some centres unmarked) [Compound 5′, reference compound]",ATR IC50 value (ratio to Example Compound 1) (ATR kinase): 15/5.5 = 2.73; LoVo IC50 value (ratio to Example Compound 1) [1]: 1.88/0.66 = 2.85
188,"Cc1c[nH]c2nccc(-c3cc(N4CCOC[C@H]4C)c4ccn(S(C)(=O)=O)c4n3)c12 [Compound 6, (R)-3-methyl-4-(3-methyl-1′-(methylsulfonyl)-1H,1′H-[4,6′-dipyrrolo[2,3-b]pyridin]-4′-yl)morpholine]",–
268,"C[C@@H]1COCCN1c1cc(-c2ccnc3[nH]ccc23)c2ccn(S(C)(=O)=O)c2n1 [Compound 6′, reference compound]",–
3.2,"C[C@@H]1COCCN1c1cc(-c2cc(F)cc3[nH]ccc23)nc2c1ccn2S(C)(=O)=O [Compound 7, (R)-4-(6-(6-fluoro-1H-indol-4-yl)-1-(methylsulfonyl)-1H-pyrrolo[2,3-b]pyridin-4-yl)-3-methylmorpholine]",Emax [1]: 95%
28,"CC(n1cnc2c(N3CCOC[C@H]3C)nc(-c3cncc4[nH]ccc34)cc21)S(C)(=O)=O (some centres unmarked) [Compound 7′, reference compound]",–
78,"C[C@@H]1COCCN1c1cc(-c2ccc(F)c3[nH]ccc23)nc2c1ccn2S(C)(=O)=O [Compound 8, (R)-4-(6-(7-fluoro-1H-indol-4-yl)-1-(methylsulfonyl)-1H-pyrrolo[2,3-b]pyridin-4-yl)-3-methylmorpholine]",–
311,"C[C@@H]1COCCN1c1cc(-c2ccn[nH]2)nc2c1ccn2S(C)(=O)=O [Compound 9, (R)-3-methyl-4-(1-(methylsulfonyl)-6-(1H-pyrazol-5-yl)-1H-pyrrolo[2,3-b]pyridin-4-yl)morpholine]",–
843,"C[C@@H]1COCCN1c1cc(-c2cn[nH]c2)nc2c1ccn2S(C)(=O)=O [Compound 10, (R)-3-methyl-4-(1-(methylsulfonyl)-6-(1H-pyrazol-4-yl)-1H-pyrrolo[2,3-b]pyridin-4-yl)morpholine]",–
823,"C[C@@H]1COCCN1c1cc(-c2nc3ccccc3[nH]2)nc2c1ccn2S(C)(=O)=O [Compound 11, (R)-4-(6-(1H-benzo[d]imidazol-2-yl)-1-(methylsulfonyl)-1H-pyrrolo[2,3-b]pyridin-4-yl)-3-methylmorpholine]",–
130,"C[C@@H]1COCCN1c1cc(-c2ncnc3[nH]ccc23)nc2c1ccn2S(C)(=O)=O [Compound 12, (R)-3-methyl-4-(1-(methylsulfonyl)-6-(7H-pyrrolo[2,3-d]pyrimidin-4-yl)-1H-pyrrolo[2,3-b]pyridin-4-yl)-morpholine]",–
196,"C[C@@H]1COCCN1c1cc(-c2ccnc3[nH]cnc23)nc2c1ccn2S(C)(=O)=O [Compound 13, (R)-4-(6-(3H-imidazo[4,5-b]pyridin-7-yl)-1-(methylsulfonyl)-1H-pyrrolo[2,3-b]pyridin-4-yl)-3-methylmorpholine]",–
35,"CC(C)S(=O)(=O)n1ccc2c(N3CCOC[C@H]3C)cc(-c3ccnc4[nH]ccc34)nc21 [Compound 14, (R)-4-(1′-(isopropylsulfonyl)-1H,1′H-[4,6′-dipyrrolo[2,3-b]pyridin]-4′-yl)-3-methylmorpholine]",IC50 [1]: 2130 nM; Max Inhibition [1]: 93%
12,"C[C@@H]1COCCN1c1cc(-c2ccnc3[nH]ccc23)nc2c1ccn2S(=O)(=O)C1CC1 [Compound 15, (R)-4-(1′-(cyclopropylsulfonyl)-1H,1′H-[4,6′-dipyrrolo[2,3-b]pyridin]-4′-yl)-3-methylmorpholine]",IC50 [1]: 1270 nM; Max Inhibition [1]: 94%
17,"C[C@@H]1COCCN1c1cc(-c2ccnc3[nH]ccc23)nc2c1ccn2S(=O)(=O)N(C)C [Compound 16, (R)-N,N-dimethyl-4′-(3-methylmorpholinyl)-1H,1′H-[4,6′-dipyrrolo[2,3-b]pyridine]-1′-sulfamide]",IC50 [1]: 1820 nM; Max Inhibition [1]: 93%
1.6,"C[C@@H]1COCCN1c1nc(-c2ccnc3[nH]ccc23)nc2c1ccn2S(C)(=O)=O [Compound 17, (R)-3-methyl-4-(7-(methylsulfonyl)-2-(1H-pyrrolo[2,3-b]pyridin-4-yl)-7H-pyrrolo[2,3-d]pyrimidin-4-yl)morpholine]",Emax [1]: 93%
2.3,"C[C@@H]1COCCN1c1nc(-c2cccc3[nH]ccc23)nc2c1ccn2S(C)(=O)=O [Compound 18, (R)-4-(2-(1H-indol-4-yl)-7-(methylsulfonyl)-7H-pyrrolo[2,3-d]pyrimidin-4-yl)-3-methylmorpholine]",Emax [1]: 92%
1.6,"C[C@@H]1COCCN1c1nc(-c2cncc3[nH]ccc23)nc2c1ccn2S(C)(=O)=O [Compound 19, (R)-3-methyl-4-(7-(methylsulfonyl)-2-(1H-pyrrolo[2,3-c]pyridin-4-yl)-7H-pyrrolo[2,3-d]pyrimidin-4-yl)morpholine]",Emax [1]: 90%
1.6,"C[C@@H]1COCCN1c1nc(-c2cc(F)cc3[nH]ccc23)nc2c1ccn2S(C)(=O)=O [Compound 20, (R)-4-(2-(6-fluoro-1H-indol-4-yl)-7-(methylsulfonyl)-7H-pyrrolo[2,3-d]pyrimidin-4-yl)-3-methylmorpholine]",Emax [1]: 91%
4.4,"C[C@@H]1COCCN1c1nc(-c2ccnc3[nH]ccc23)nc2c1ccn2S(=O)(=O)CCO [Compound 21, (R)-2-((4-(3-methylmorpholinyl)-2-(1H-pyrrolo[2,3-b]pyridin-4-yl)-7H-pyrrolo[2,3-d]pyrimidin-7-yl)sulfonyl)ethanol]",IC50 [1]: 710 nM; Max Inhibition [1]: 92%

SMILES,IC50 (ATR kinase) [nM],also measured
"C[C@@H]1COCCN1c1cc(-c2ccnc3[nH]ccc23)nc2c1ccn2S(C)(=O)=O [Compound 1, (R)-3-methyl-4-(1′-(methylsulfonyl)-1H,1′H-[4,6′-dipyrrolo[2,3-b]pyridin]-4′-yl)morpholine]",5.5,IC50 [1]: 660 nM

# Reference: US20250051362A1, “SUBSTITUTED FUSED HETEROCYCLIC COMPOUND, AND PREPARATION METHOD THEREFOR AND USE THEREOF” (Shanghai Annova Biotechnology Co., Ltd., priority 2021, published 2025)
